Assays:
Assay in all cases: Kinase panel, residual kinase activity at 1 μM inhibitor
Type in all cases: biochemical
AMPKα1(h) = AMPKα1(h) (Homo sapiens, UniProt Q13131)
Experimental: (§1) In this table, residual kinase activity in the presence of 1 μM of each inhibitor is illustrated as a percentage of maximal activity.

Arg(h) = Arg(h) (Homo sapiens, UniProt P42684)
Experimental: as §1

Aurora-C(h) = Aurora-C(h) (Homo sapiens, UniProt Q9UQB9)
Experimental: as §1

CDK5/p35(h) = CDK5/p35(h) (Homo sapiens, UniProt Q00535)
Chain of CDK5/p35(h) (Q00535 whole entry): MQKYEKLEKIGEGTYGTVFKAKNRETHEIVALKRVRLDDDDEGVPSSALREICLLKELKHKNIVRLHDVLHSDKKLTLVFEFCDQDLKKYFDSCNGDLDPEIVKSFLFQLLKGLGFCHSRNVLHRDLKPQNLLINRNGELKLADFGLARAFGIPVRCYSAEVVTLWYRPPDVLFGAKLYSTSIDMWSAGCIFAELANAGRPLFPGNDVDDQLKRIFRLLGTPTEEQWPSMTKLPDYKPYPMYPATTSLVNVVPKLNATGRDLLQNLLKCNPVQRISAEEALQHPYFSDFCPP
Chain of CDK5/p35(h) (Q15078 whole entry partner): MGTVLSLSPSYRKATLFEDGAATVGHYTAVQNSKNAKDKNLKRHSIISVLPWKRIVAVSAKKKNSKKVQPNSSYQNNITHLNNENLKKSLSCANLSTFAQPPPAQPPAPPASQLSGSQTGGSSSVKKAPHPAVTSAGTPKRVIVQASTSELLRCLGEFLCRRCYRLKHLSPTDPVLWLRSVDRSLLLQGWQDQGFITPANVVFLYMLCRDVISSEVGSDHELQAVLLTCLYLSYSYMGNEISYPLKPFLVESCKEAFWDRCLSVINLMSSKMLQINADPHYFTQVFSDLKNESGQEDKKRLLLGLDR
Experimental: as §1

CaMKI(h) = CaMKI(h) (Homo sapiens, UniProt Q14012)
Experimental: as §1

CaMKIIα(h) = CaMKIIα(h) (Homo sapiens, UniProt Q9UQM7)
Chain of CaMKIIα(h) (Q9UQM7 whole entry): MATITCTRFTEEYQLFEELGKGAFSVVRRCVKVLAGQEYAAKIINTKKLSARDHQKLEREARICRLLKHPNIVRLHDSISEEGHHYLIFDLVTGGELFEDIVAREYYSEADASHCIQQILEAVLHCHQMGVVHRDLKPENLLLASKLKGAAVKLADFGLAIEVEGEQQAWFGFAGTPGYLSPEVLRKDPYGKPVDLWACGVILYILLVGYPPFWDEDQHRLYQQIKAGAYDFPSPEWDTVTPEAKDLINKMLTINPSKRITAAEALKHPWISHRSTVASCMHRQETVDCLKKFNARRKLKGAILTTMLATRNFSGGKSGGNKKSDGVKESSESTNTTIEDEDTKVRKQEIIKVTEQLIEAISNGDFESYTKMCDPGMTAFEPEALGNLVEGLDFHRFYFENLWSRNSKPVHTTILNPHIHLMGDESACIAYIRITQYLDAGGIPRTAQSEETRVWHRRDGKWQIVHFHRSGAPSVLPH
Experimental: as §1

CaMKIIβ(h) = CaMKIIβ(h) (Homo sapiens, UniProt Q13554)
Experimental: as §1

CaMKIIγ(h) = CaMKIIγ(h) (Homo sapiens, UniProt Q13555)
Experimental: as §1

CaMKIIδ(h) = CaMKIIδ(h) (Homo sapiens, UniProt Q13557)
Experimental: as §1

CaMKIV(h) = CaMKIV(h) (Homo sapiens, UniProt Q16566)
Experimental: as §1

FAK(h) = FAK(h) (Homo sapiens, UniProt Q05397)
Experimental: as §1

Flt3(h) = Flt3(h) (Homo sapiens, UniProt P36888)
Experimental: as §1

GSK3α(h) = GSK3α(h) (Homo sapiens, UniProt P49840)
Experimental: as §1

GSK3β(h) = GSK3β(h) (Homo sapiens, UniProt P49841)
Experimental: as §1

IGF-1R(h) = IGF-1R(h) (Homo sapiens, UniProt P08069)
Experimental: as §1

JAK3(h) = JAK3(h) (Homo sapiens, UniProt P52333)
Experimental: as §1

JNK2α2(h) = JNK2α2(h) (Homo sapiens, UniProt P45984)
Experimental: as §1

KDR(h) = KDR(h) (Homo sapiens, UniProt P35968)
Chain of KDR(h) (P35968 20-1356): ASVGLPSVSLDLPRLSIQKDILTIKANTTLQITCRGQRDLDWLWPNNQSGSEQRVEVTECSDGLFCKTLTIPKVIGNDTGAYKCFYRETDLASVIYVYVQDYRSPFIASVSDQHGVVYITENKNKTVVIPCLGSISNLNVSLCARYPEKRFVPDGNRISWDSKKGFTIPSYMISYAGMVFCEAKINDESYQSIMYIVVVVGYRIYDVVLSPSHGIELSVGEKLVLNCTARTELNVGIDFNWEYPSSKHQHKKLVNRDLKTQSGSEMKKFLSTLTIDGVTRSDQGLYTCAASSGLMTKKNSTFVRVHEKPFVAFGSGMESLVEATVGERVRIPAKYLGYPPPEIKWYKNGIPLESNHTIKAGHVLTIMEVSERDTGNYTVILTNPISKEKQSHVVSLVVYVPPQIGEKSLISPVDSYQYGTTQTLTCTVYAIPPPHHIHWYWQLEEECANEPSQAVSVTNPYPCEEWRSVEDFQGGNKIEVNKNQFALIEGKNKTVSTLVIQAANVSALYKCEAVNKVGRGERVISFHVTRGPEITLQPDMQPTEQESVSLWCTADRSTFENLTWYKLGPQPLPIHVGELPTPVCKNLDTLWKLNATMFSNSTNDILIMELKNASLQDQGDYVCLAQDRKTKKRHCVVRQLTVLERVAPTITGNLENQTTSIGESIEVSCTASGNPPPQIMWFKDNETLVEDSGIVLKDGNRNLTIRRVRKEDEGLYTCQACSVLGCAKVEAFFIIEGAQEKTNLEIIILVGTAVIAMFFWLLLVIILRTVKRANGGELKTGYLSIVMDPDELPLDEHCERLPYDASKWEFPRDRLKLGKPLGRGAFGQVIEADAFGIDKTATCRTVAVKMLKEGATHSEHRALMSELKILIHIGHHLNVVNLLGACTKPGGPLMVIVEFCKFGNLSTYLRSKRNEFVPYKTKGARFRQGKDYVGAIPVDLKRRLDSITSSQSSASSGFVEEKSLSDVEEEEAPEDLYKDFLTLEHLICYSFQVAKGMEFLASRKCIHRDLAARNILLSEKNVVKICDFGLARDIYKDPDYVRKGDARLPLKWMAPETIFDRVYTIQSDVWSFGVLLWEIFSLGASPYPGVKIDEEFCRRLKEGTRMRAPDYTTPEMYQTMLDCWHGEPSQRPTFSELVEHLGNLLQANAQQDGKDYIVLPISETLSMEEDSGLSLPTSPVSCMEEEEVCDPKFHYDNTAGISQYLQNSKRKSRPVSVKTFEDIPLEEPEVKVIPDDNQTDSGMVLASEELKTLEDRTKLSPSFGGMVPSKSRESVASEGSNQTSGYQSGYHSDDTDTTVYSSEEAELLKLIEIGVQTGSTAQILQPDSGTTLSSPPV
Experimental: as §1

MAPK1(h) = MAPK1(h) (Homo sapiens, UniProt P27361)
Experimental: as §1

MEK1(h) = MEK1(h) (Homo sapiens, UniProt Q02750)
Chain of MEK1(h) (Q02750 whole entry): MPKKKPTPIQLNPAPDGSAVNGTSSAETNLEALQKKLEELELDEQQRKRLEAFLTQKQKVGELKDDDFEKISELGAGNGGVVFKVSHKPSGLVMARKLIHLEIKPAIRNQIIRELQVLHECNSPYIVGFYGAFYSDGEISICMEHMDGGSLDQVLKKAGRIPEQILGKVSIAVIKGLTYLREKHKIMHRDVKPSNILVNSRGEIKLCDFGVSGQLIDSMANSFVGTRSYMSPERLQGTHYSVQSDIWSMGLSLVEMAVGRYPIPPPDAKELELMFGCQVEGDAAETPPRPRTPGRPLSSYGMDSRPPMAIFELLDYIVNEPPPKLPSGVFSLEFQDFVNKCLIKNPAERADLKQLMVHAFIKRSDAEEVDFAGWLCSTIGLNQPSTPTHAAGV
Experimental: as §1

PAK2(h) = PAK2(h) (Homo sapiens, UniProt Q13177)
Chain of PAK2(h) (Q13177 whole entry): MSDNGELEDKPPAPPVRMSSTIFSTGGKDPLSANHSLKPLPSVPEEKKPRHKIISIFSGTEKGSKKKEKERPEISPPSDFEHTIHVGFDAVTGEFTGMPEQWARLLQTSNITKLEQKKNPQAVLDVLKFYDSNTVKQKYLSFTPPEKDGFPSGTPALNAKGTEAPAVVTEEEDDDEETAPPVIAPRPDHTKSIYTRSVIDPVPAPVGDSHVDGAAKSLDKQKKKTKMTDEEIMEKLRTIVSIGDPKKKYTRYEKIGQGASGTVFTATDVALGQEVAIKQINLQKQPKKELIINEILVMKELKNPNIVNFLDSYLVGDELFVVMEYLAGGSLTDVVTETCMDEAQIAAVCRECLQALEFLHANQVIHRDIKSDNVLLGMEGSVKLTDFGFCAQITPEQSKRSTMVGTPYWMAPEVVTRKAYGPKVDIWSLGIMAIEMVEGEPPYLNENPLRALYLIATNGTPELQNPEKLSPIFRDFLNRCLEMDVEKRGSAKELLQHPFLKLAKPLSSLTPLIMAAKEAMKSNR
Experimental: as §1

PDGFRβ(h) = PDGFRβ(h) (Homo sapiens, UniProt P09619)
Experimental: as §1

PDK1(h) = PDK1(h) (Homo sapiens, UniProt O15530)
Chain of PDK1(h) (O15530 whole entry): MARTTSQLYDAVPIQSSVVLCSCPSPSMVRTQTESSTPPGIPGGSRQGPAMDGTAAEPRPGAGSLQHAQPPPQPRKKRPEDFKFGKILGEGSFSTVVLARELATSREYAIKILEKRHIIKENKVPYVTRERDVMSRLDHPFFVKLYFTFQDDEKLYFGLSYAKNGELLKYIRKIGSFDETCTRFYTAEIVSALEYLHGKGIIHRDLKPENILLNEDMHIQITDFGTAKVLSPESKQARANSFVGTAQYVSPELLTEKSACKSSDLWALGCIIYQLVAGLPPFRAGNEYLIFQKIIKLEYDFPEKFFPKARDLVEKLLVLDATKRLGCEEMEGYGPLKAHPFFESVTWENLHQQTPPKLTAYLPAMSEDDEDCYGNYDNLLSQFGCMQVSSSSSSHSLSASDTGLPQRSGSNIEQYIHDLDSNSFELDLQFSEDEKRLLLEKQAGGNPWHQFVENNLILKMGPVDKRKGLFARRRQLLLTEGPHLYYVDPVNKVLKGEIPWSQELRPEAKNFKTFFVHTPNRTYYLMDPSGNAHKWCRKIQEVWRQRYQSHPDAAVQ
Experimental: as §1

[1] = molecular target: PI3 Kinase (p110a/p85a)(h) (Homo sapiens, UniProt P42336)
Experimental: as §1

PKBγ(h) = PKBγ(h) (Homo sapiens, UniProt Q9Y243)
Experimental: as §1

PKCα(h) = PKCα(h) (Homo sapiens, UniProt P17252)
Experimental: as §1

PKG1α(h) = PKG1α(h) (Homo sapiens, UniProt Q13976)
Experimental: as §1

PKG1β(h) = PKG1β(h) (Homo sapiens, UniProt Q13976)
Experimental: as §1

Pim-1(h) = Pim-1(h) (Homo sapiens, UniProt P11309)
Experimental: as §1

ROCK-II(h) = ROCK-II(h) (Homo sapiens, UniProt O75116)
Experimental: as §1

SAPK2a(h) = SAPK2a(h) (Homo sapiens, UniProt Q16539)
Experimental: as §1

SGK(h) = SGK(h) (Homo sapiens, UniProt O00141)
Experimental: as §1

cKit(h) = cKit(h) (Homo sapiens, UniProt P10721)
Chain of cKit(h) (P10721 26-976): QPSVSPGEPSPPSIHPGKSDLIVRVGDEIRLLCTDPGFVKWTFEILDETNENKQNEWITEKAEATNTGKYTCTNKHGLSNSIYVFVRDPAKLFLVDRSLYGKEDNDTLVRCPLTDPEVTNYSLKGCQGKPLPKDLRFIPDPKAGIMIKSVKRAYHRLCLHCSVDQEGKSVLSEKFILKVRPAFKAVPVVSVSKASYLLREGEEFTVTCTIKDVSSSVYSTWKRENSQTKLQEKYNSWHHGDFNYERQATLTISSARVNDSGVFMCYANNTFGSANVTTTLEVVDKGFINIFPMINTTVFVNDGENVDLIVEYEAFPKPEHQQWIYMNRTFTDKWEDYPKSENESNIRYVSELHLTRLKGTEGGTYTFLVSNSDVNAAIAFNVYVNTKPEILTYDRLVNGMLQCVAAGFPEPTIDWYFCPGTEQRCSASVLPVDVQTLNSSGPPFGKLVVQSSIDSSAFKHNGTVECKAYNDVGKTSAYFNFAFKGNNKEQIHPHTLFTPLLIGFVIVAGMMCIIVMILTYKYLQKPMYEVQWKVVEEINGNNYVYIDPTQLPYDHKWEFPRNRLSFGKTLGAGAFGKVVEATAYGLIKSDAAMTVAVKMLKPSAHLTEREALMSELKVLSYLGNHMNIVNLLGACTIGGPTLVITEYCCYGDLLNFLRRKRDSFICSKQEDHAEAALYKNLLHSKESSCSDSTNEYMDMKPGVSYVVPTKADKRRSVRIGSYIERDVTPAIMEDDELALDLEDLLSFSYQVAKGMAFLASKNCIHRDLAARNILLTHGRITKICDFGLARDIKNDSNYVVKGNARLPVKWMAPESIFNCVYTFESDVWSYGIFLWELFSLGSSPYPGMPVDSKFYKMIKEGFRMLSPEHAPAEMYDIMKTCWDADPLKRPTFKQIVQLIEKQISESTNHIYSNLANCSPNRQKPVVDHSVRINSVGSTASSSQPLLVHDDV
Experimental: as §1

mTOR(h) = mTOR(h) (Homo sapiens, UniProt P42345)
Experimental: as §1

p70S6K(h) = p70S6K(h) (Homo sapiens, UniProt P23443)
Experimental: as §1

## NCCNc1cccc(-c2ccnc3[nH]c4ccccc4c23)c1 [AS283]
AMPKα1(h)
  residual kinase activity, AMPKα1(h): 70 percentage of maximal activity
Arg(h)
  residual kinase activity, Arg(h): 96 percentage of maximal activity
Aurora-C(h)
  residual kinase activity, Aurora-C(h): 63 percentage of maximal activity
CDK5/p35(h)
  residual kinase activity, CDK5/p35(h): 33 percentage of maximal activity
CaMKI(h)
  residual kinase activity, CaMKI(h): 107 percentage of maximal activity
CaMKIIα(h)
  residual kinase activity, CaMKIIα(h): 3 percentage of maximal activity
CaMKIIβ(h)
  residual kinase activity, CaMKIIβ(h): 5 percentage of maximal activity
CaMKIIγ(h)
  residual kinase activity, CaMKIIγ(h): 2 percentage of maximal activity
CaMKIIδ(h)
  residual kinase activity, CaMKIIδ(h): 2 percentage of maximal activity
CaMKIV(h)
  residual kinase activity, CaMKIV(h): 90 percentage of maximal activity
FAK(h)
  residual kinase activity, FAK(h): 68 percentage of maximal activity
Flt3(h)
  residual kinase activity, Flt3(h): 3 percentage of maximal activity
GSK3α(h)
  residual kinase activity, GSK3α(h): 82 percentage of maximal activity
GSK3β(h)
  residual kinase activity, GSK3β(h): 87 percentage of maximal activity
IGF-1R(h)
  residual kinase activity, IGF-1R(h): 110 percentage of maximal activity
JAK3(h)
  residual kinase activity, JAK3(h): 92 percentage of maximal activity
JNK2α2(h)
  residual kinase activity, JNK2α2(h): 82 percentage of maximal activity
KDR(h)
  residual kinase activity, KDR(h): 15 percentage of maximal activity
MAPK1(h)
  residual kinase activity, MAPK1(h): 102 percentage of maximal activity
MEK1(h)
  residual kinase activity, MEK1(h): 85 percentage of maximal activity
PAK2(h)
  residual kinase activity, PAK2(h): 76 percentage of maximal activity
PDGFRβ(h)
  residual kinase activity, PDGFRβ(h): 111 percentage of maximal activity
PDK1(h)
  residual kinase activity, PDK1(h): 78 percentage of maximal activity
[1]
  residual kinase activity, PI3 Kinase (p110a/p85a)(h): 100 percentage of maximal activity
PKBγ(h)
  residual kinase activity, PKBγ(h): 42 percentage of maximal activity
PKCα(h)
  residual kinase activity, PKCα(h): 49 percentage of maximal activity
PKG1α(h)
  residual kinase activity, PKG1α(h): 48 percentage of maximal activity
PKG1β(h)
  residual kinase activity, PKG1β(h): 38 percentage of maximal activity
Pim-1(h)
  residual kinase activity, Pim-1(h): 50 percentage of maximal activity
ROCK-II(h)
  residual kinase activity, ROCK-II(h): 77 percentage of maximal activity
SAPK2a(h)
  residual kinase activity, SAPK2a(h): 95 percentage of maximal activity
SGK(h)
  residual kinase activity, SGK(h): 86 percentage of maximal activity
cKit(h)
  residual kinase activity, cKit(h): 50 percentage of maximal activity
mTOR(h)
  residual kinase activity, mTOR(h): 115 percentage of maximal activity
p70S6K(h)
  residual kinase activity, p70S6K(h): 18 percentage of maximal activity
